Tests used:
[1] = target: T1, human ALX receptor (Homo sapiens, UniProt P25090); test: Intracellular calcium measurements (FLIPR), agonistic activity in HEK293-hALXR-Gα16 cells; format: cell-based; conditions: Fluo-4 calcium FLIPR, normalized to WKYMVm 10 nM
T1 construct: expressed in transfected cells; host or cells: HEK293 (HEK293-hALXR-Gα16)
T1 sequence (P25090 1-351): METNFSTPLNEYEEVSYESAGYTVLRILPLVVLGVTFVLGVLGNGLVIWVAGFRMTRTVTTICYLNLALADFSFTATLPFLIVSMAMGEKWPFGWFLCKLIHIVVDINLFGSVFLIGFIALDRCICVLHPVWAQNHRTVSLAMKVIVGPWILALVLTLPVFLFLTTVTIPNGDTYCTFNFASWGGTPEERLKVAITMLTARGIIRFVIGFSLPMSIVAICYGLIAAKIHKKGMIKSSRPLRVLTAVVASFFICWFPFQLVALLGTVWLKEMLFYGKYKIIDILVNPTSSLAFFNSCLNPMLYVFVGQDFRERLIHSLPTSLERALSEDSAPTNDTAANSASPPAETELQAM
How it was run: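 Agonist-induced calcium flux was recorded by FLIPR (488/540 nm) in HEK293-hALXR-Gα16 cells pre-loaded with Fluo-4 AM (1 μM, 60 min, 37°C). Peak signal above baseline, after subtracting buffer addition, was expressed relative to WKYMVm at 10 nM final.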

[2] = target: T2, human FPRL2 (Homo sapiens, UniProt P25089); test: Intracellular calcium measurements (FLIPR), agonistic activity in HEK293-hFPRL2-Gα16 cells; format: cell-based; conditions: Fluo-4 calcium FLIPR, normalized to GLY14-Humanin 100 nM
T2 construct: expressed in transfected cells; host or cells: HEK293 (HEK293-hFPRL2-Gα16)
T2 sequence (P25089 1-353): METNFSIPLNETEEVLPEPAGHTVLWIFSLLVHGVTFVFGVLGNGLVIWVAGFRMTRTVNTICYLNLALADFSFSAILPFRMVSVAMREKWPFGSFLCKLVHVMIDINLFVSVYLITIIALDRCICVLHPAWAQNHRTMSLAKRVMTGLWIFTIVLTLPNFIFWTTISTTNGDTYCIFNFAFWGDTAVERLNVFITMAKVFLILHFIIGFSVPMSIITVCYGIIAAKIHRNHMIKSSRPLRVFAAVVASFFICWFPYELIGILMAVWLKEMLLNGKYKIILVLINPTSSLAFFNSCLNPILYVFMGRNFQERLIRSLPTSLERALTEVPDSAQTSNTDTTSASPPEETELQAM
How it was run: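 Peak values after baseline subtraction are expressed relative to 100 nM Gly14-Humanin; compounds diluted in assay buffer from 10 mM DMSO stocks.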

| EC50 [1] [nM] | EC50 [2] [nM] | SMILES |
| --- | --- | --- |
| 290 | 1170 | CN(C)CCNC(=O)[C@H]1[C@H](C(=O)NCc2ccc(Br)cc2)[C@@H]2C=C[C@H]1C21CC1 (racemic) [Example 274, (5R*)—N^5-(4-Bromophenyl-methyl)-(6R*)—N^6-(2-dimethylamino-ethyl)-(4S*,7R*)-[4,7-ethenylene-spiro[2.4]heptane]-5,6-dicarboxamide] |
| 181 | 7040 | O=C(NCCN1CCNC1=O)[C@H]1[C@H](C(=O)NCc2ccc(Br)cc2)[C@@H]2C=C[C@H]1C21CC1 (racemic) [Example 275, (5R*)—N^5-(4-Bromophenyl-methyl)-(6R*)—N^6-((2-imidazolidin-2-on)-1-yl-ethyl)-(4S*,7R*)-[4,7-ethenylene-spiro[2.4]heptane]-5,6-dicarboxamide] |
| 44 | > 25000 | COCCNC(=O)[C@H]1[C@H](C(=O)Nc2ncc(Br)s2)[C@@H]2C=C[C@H]1C21CC1 (racemic) [Example 276, (5R*)—N^5-(5-Bromothiazol-2-yl)-(6R*)—N^6-(2-methoxy-ethyl)-(4S*,7R*)-[4,7-ethenylene-spiro[2.4]heptane]-5,6-dicarboxamide] |
| 61 | 2010 | CN(C)CCCNC(=O)[C@H]1[C@H](C(=O)Nc2ncc(Br)s2)[C@@H]2C=C[C@H]1C21CC1 (racemic) [Example 277, (5R*)—N^5-(5-Bromothiazol-2-yl)-(6R*)—N^6-(3-dimethylamino-propyl)-(4S*,7R*)-[4,7-ethenylene-spiro[2.4]heptane]-5,6-dicarboxamide] |
| 273 | 359 | CC(=O)c1csc(CNC(=O)[C@H]2[C@H](C(=O)NCCCN)[C@H]3C=C[C@@H]2C32CC2)n1 (racemic) [Example 299, (5R*)—N^5-(4-Acetyl-thiazol-2-yl-methyl)-(6R*)—N^6-(3-amino-propyl)-(4S*,7R*)-[4,7-ethenylene-spiro[2.4]heptane]-5,6-dicarboxamide] |
| 384 | 1820 | CC(=O)c1csc(CNC(=O)[C@H]2[C@H](C(=O)NCC3CCNCC3)[C@H]3C=C[C@@H]2C32CC2)n1 (racemic) [Example 300, (5R*)—N^5-(4-Acetyl-thiazol-2-yl-methyl)-(6R*)—N^6-(piperidin-4-yl-methyl)-(4S*,7R*)-[4,7-ethenylene-spiro[2.4]heptane]-5,6-dicarboxamide] |
| 98 | 2700 | CNCCNC(=O)[C@H]1[C@H](C(=O)Nc2ncc(Br)s2)[C@@H]2C=C[C@H]1C21CC1 (racemic) [Example 301, (5R*)—N^5-(5-Bromo-thiazol-2-yl)-(6R*)—N^6-(2-methylamino-ethyl)-(4S*,7R*)-[4,7-ethenylene-spiro[2.4]heptane]-5,6-dicarboxamide] |
| 1.3 | 543 | NCCCCCNC(=O)[C@H]1[C@H](C(=O)Nc2ncc(Br)s2)[C@@H]2C=C[C@H]1C21CC1 (racemic) [Example 302, (5R*)—N^5-(5-Bromo-thiazol-2-yl)-(6R*)—N^6-(5-amino-pentyl)-(4S*,7R*)-[4,7-ethenylene-spiro[2.4]heptane]-5,6-dicarboxamide] |
| 45 | 1340 | NCc1ccc(CNC(=O)[C@H]2[C@H](C(=O)Nc3ncc(Br)s3)[C@@H]3C=C[C@H]2C32CC2)cc1 (racemic) [Example 303, (5R*)—N^5-(5-Bromo-thiazol-2-yl)-(6R*)—N^6-(4-(aminomethyl)phenyl-methyl)-(4S*,7R*)-[4,7-ethenylene-spiro[2.4]heptane]-5,6-dicarboxamide] |
| 12 | 1630 | CC(C)(CN)CNC(=O)[C@H]1[C@H](C(=O)Nc2ncc(Br)s2)[C@@H]2C=C[C@H]1C21CC1 (racemic) [Example 304, (5R*)—N^5-(5-Bromo-thiazol-2-yl)-(6R*)—N^6-(2,2-dimethyl-3-amino-propyl)-(4S*,7R*)-[4,7-ethenylene-spiro[2.4]heptane]-5,6-dicarboxamide] |
| 350 | 2050 | CNCCNC(=O)[C@H]1[C@H](C(=O)NCc2ccc(Br)cc2)[C@@H]2C=C[C@H]1C21CC1 (racemic) [Example 305, (5R*)—N^5-(4-Bromophenyl-methyl)-(6R*)—N^6-(2-methylamino-ethyl)-(4S*,7R*)-[4,7-ethenylene-spiro[2.4]heptane]-5,6-dicarboxamide] |
| 23 | 2760 | O=C(NC1CCNCC1)[C@H]1[C@H](C(=O)NCc2ccc(Br)cc2)[C@@H]2C=C[C@H]1C21CC1 (racemic) [Example 306, (5R*)—N^5-(4-Bromophenyl-methyl)-(6R*)—N^6-(piperidin-4-yl)-(4S*,7R*)-[4,7-ethenylene-spiro[2.4]heptane]-5,6-dicarboxamide] |
| 76 | 2640 | NCCCNC(=O)[C@H]1[C@H](C(=O)NCc2ccc(Br)cc2)[C@@H]2C=C[C@H]1C21CC1 (racemic) [Example 307, (5R*)—N^5-(4-Bromophenyl-methyl)-(6R*)—N^6-(3-amino-propyl)-(4S*,7R*)-[4,7-ethenylene-spiro[2.4]heptane]-5,6-dicarboxamide] |
| 59 | 493 | NCc1cccc(CNC(=O)[C@H]2[C@H](C(=O)NCc3ccc(Br)cc3)[C@@H]3C=C[C@H]2C32CC2)c1 (racemic) [Example 308, (5R*)—N^5-(4-Bromophenyl-methyl)-(6R*)—N^6-(3-(aminomethyl)phenyl-methyl)-(4S*,7R*)-[4,7-ethenylene-spiro[2.4]heptane]-5,6-dicarboxamide] |
| 367 | 1340 | NCc1ccc(CNC(=O)[C@H]2[C@H](C(=O)NCc3ccc(Br)cc3)[C@@H]3C=C[C@H]2C32CC2)cc1 (racemic) [Example 309, (5R*)—N^5-(4-Bromophenyl-methyl)-(6R*)—N^6-(4-(aminomethyl)phenyl-methyl)-(4S*,7R*)-[4,7-ethenylene-spiro[2.4]heptane]-5,6-dicarboxamide] |
| 26 | 466 | CC(C)(CN)CNC(=O)[C@H]1[C@H](C(=O)NCc2ccc(Br)cc2)[C@@H]2C=C[C@H]1C21CC1 (racemic) [Example 310, (5R*)—N^5-(4-Bromophenyl-methyl)-(6R*)—N^6-(2,2-dimethyl-3-amino-propyl)-(4S*,7R*)-[4,7-ethenylene-spiro[2.4]heptane]-5,6-dicarboxamide] |
| 54 | 1170 | O=C(NCC1CCNCC1)[C@H]1[C@H](C(=O)NCc2ccc(Br)cc2)[C@@H]2C=C[C@H]1C21CC1 (racemic) [Example 311, (5R*)—N^5-(4-Bromophenyl-methyl)-(6R*)—N^6-(piperidin-4-yl-methyl)-(4S*,7R*)-[4,7-ethenylene-spiro[2.4]heptane]-5,6-dicarboxamide] |
| 1740 | 165 | O=C(NCCCCN1CCCC1)[C@H]1[C@H](C(=O)NCCC2=CCCCC2)[C@@H]2C=C[C@H]1C21CC1 (racemic) [Example 341, (5R*)—N^5-(2-(Cyclohexen-1-yl)ethyl)-(6R*)—N^6-(4-pyrrolidino-butyl)-(4S*,7R*)-[4,7-ethenylene-spiro[2.4]heptane]-5,6-dicarboxamide] |
| > 2390 | 885 | O=C(NCCCCN1CCCC1)[C@H]1[C@H](C(=O)NCCc2ccccn2)[C@@H]2C=C[C@H]1C21CC1 (racemic) [Example 343, (5R*)—N^5-(2-(Pyridin-2-yl)ethyl)-(6R*)—N^6-(4-pyrrolidino-butyl)-(4S*,7R*)-[4,7-ethenylene-spiro[2.4]heptane]-5,6-dicarboxamide] |
| 7850 | 414 | CC(=O)c1csc(NC(=O)[C@H]2[C@H](C(=O)NCCCCN3CCCC3)[C@H]3C=C[C@@H]2C32CC2)n1 (racemic) [Example 344, (5R*)—N^5-(4-Acetyl-thiazol-2-yl)-(6R*)—N^6-(4-pyrrolidino-butyl)-(4S*,7R*)-[4,7-ethenylene-spiro[2.4]heptane]-5,6-dicarboxamide] |
| > 25000 | 734 | O=C(NCCCCN1CCCC1)[C@H]1[C@H](C(=O)Nc2nc(C(F)(F)F)cs2)[C@@H]2C=C[C@H]1C21CC1 (racemic) [Example 345, (5R*)—N^5-(4-Trifluoromethyl-thiazol-2-yl)-(6R*)—N^6-(4-pyrrolidino-butyl)-(4S*,7R*)-[4,7-ethenylene-spiro[2.4]heptane]-5,6-dicarboxamide] |
